Laboratory results: patent US12173005B1, “Pyrimido[1′,6′:1,5]pyrazolo[4,3-b][1,7]naphthyridine compounds as CK2 inhibitors” (KING FAISAL UNIVERSITY, priority 2023, dated 2024)
pIC50: −log10 of the molar value.

What was measured:
MCF7 (breast) = assay: MTT in vitro cytotoxic activity assay, MCF7; type: cell-based; details: Homo sapiens, cells exposed for 96 hours, 50% inhibition of cell proliferation, read-out: Cytotoxicity activity IC50, MCF7 (breast)
Description: (§1) Compounds 1-16 were screened for their in vitro cytotoxic activity utilizing a 3-(4,5-dimethyl-thiazol-2-yl)-2,5-diphenyltetrazolium bromide (MTT) assay against selected cancer human cell lines consisting of PC3 (prostate), HCT116 (colon), A375 (melanoma), H1299 (lung), MIAPaCa-2 (pancreas), HL60 (leukemia), MCF7 (breast), MDA-MB-231 (breast) (T. Mosmann, J. Immunol. Meth., 1983, 65, 55-63). The cells were cultured at 37° C. in RMPI1640 medium supplemented with 10% fetal bovine serum, 50 IU/mL penicillin, and 50 μg/mL streptomycin in a 5% CO2 incubator. All cells were sub-cultured 3 times/week by trypsinisation. Viable cells were seeded and allowed to adhere for 12 h before a test drug was added in 96-well plates at an initial density of 1.0×10^5 cells/mL. Tumor cell lines were separately exposed to various concentrations of the tested compounds followed by incubation at a temperature of 37° C. during 96 hours inside a medium of fresh RMPI 1640. Cells were subsequently incubated at 37° C. using MTT at 0.5 mg/mL during 4 hours. After removal of supernatant, formazan crystals were dissolved in isopropanol and the optical density was measured at 570 nm. CX-4945 was used as a positive control.

A375 (melanoma) = assay: MTT in vitro cytotoxic activity assay, A375; type: cell-based; details: Homo sapiens, A-375; cells exposed for 96 hours; 50% inhibition of cell proliferation; read-out: Cytotoxicity activity IC50, A375 (melanoma)
Description: as §1

MDA-MB-231 (breast) = assay: MTT in vitro cytotoxic activity assay, MDA-MB-231; type: cell-based; details: Homo sapiens, cells exposed for 96 hours, 50% inhibition of cell proliferation, read-out: Cytotoxicity activity IC50, MDA-MB-231 (breast)
Description: as §1

HL60 (leukemia) = assay: MTT in vitro cytotoxic activity assay, HL60; type: cell-based; details: Homo sapiens, HL-60; cells exposed for 96 hours; 50% inhibition of cell proliferation; read-out: Cytotoxicity activity IC50, HL60 (leukemia)
Description: as §1

MIAPaCa-2 (pancreas) = assay: MTT in vitro cytotoxic activity assay, MIAPaCa-2; type: cell-based; details: Homo sapiens, MIA PaCa-2; cells exposed for 96 hours; 50% inhibition of cell proliferation; read-out: Cytotoxicity activity IC50, MIAPaCa-2 (pancreas)
Description: as §1

[1] = biological target: T1, recombinant human CK2 (RRββ-holoenzyme) (Homo sapiens, UniProt P68400); assay: CK2 Kinase Assay (radiometric, [γ-33P] ATP); type: biochemical; details: final ATP concentration 15 μM; 10 min at 30° C.; read-out: protein kinase CK2 IC50
T1 construct: purchased Millipore
Description: CK2 Kinase Assay was conducted using the protocol as described in Pierre F. et al; J. Med. Chem. 2011, 54, 635-654. The tested compounds in aqueous solution were added at a volume of 10 μL to a reaction mixture comprising 10 μL of assay dilution buffer (ADB; 20 mM MOPS, pH 7.2, 25 mM β-glycerol phosphate, 5 mM EGTA, 1 mM sodium orthovanadate, and 1 mM dithiothreitol), 10 μL of substrate peptide (RRRDDDSDDD, dissolved in ADB at a concentration of 1 mM), 10 μL of recombinant human CK2 (RRββ-holoenzyme, 25 ng dissolved in ADB; Millipore). Reactions were initiated by the addition of 10 μL of ATP solution (90% 75 mMMgCl2, 75 μM ATP (final ATP concentration: 15 μM) dissolved in ADB; 10% [γ-33P] ATP (stock 1mCi/100 μL; 3000 Ci/mmol (Perkin-Elmer) and maintained for 10 min at 30° C. The reactions were quenched with 100 μL of 0.75% phosphoric acid and then transferred to and filtered through a phosphor cellulose filter plate (Millipore). After washing each well five times with 0.75% phosphoric acid, the plate was dried under vacuum for 5 min and, following the addition of 15 μL of scintillation fluid to each well, the residual radioactivity was measured using a Wallac luminescence counter. The IC50 values were derived from eight concentrations of test inhibitors.

H1299 (lung) = assay: MTT in vitro cytotoxic activity assay, H1299; type: cell-based; details: Homo sapiens, NCI-H1299; cells exposed for 96 hours; 50% inhibition of cell proliferation; read-out: Cytotoxicity activity IC50, H1299 (lung)
Description: as §1

PC3 (prostate) = assay: MTT in vitro cytotoxic activity assay, PC3; type: cell-based; details: Homo sapiens; cells exposed for 96 hours; 50% inhibition of cell proliferation; read-out: Cytotoxicity activity IC50, PC3 (prostate)
Description: as §1

HCT116 (colon) = assay: MTT in vitro cytotoxic activity assay, HCT116; type: cell-based; details: Homo sapiens, HCT-116; cells exposed for 96 hours; 50% inhibition of cell proliferation; read-out: Cytotoxicity activity IC50, HCT116 (colon)
Description: as §1

T1 sequence (P68400 whole entry): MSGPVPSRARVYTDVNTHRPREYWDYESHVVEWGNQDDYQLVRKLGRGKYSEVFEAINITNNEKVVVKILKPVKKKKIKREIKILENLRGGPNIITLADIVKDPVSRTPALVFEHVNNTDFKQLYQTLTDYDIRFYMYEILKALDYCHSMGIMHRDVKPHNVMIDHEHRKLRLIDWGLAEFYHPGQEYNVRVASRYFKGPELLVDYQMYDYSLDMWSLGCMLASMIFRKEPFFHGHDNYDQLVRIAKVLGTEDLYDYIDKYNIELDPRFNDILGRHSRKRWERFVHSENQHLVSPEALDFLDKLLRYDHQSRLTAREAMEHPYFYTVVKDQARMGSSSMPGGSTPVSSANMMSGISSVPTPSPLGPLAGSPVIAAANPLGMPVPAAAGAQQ
T1 sequence (P67870 whole entry partner): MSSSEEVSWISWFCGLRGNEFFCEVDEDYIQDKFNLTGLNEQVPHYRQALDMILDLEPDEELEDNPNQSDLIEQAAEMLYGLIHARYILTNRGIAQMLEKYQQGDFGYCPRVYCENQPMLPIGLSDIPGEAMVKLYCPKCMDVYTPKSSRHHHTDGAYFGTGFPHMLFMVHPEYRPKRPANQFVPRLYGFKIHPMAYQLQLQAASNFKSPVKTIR

- pIC50 [1]: 7.04
SMILES: Clc1cccc(Nc2c3ccncc3nc3c2nn2cnccc32)c1 [Compound 1, N-(3-chlorophenyl)pyrimido[1′,6′:1,5]pyrazolo[4,3-b][1,7]naphthyridin-10-amine]
- pIC50 (MCF7 (breast)): 5.19
- pIC50 (A375 (melanoma)): 5.49
- pIC50 (MDA-MB-231 (breast)): 5.29
- pIC50 (HL60 (leukemia)): 5.57
- pIC50 (MIAPaCa-2 (pancreas)): 5.92
- pIC50 (H1299 (lung)): 5.54
- pIC50 (PC3 (prostate)): 5.82
- pIC50 (HCT116 (colon)): 5.89
